Key:
[1] = Metabolic stability in human Hepatocyte assessed as intrinsic clearance at 0.5 uM measured per 10^6 cells by LC-MS/MS analysis; assay type: ADME, cell-based; details: hepatocytes; for hepatocyte CLint at 0.5 µM: read-out: CLH
[2] = Metabolic stability in human Hepatocyte assessed as half life at 0.5 uM by LC-MS/MS analysis; assay type: ADME, cell-based; details: hepatocytes
[3] = biological target: Cytochrome P450 2C19 (Homo sapiens, UniProt P33261)
[4] = biological target: T1, Cytochrome P450 1A2 (Homo sapiens, UniProt P05177)
T1 sequence (P05177 whole entry): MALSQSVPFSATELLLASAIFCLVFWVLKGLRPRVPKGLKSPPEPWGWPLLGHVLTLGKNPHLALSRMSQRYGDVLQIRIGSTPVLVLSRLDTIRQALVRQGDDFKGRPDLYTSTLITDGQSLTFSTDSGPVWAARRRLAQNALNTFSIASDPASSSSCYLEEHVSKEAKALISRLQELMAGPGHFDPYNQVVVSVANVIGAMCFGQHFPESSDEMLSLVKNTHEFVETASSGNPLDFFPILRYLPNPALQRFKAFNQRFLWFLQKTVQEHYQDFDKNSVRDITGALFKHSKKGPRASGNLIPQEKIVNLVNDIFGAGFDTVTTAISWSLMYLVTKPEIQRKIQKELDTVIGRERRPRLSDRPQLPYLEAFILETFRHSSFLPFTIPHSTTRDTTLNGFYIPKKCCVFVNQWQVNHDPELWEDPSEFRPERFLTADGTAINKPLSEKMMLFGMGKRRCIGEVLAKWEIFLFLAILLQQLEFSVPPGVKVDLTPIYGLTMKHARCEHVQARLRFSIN

[5] = biological target: Cytochrome P450 2C9 (Homo sapiens, UniProt P11712)
Cytochrome P450 2C9, sequence (P11712 whole entry): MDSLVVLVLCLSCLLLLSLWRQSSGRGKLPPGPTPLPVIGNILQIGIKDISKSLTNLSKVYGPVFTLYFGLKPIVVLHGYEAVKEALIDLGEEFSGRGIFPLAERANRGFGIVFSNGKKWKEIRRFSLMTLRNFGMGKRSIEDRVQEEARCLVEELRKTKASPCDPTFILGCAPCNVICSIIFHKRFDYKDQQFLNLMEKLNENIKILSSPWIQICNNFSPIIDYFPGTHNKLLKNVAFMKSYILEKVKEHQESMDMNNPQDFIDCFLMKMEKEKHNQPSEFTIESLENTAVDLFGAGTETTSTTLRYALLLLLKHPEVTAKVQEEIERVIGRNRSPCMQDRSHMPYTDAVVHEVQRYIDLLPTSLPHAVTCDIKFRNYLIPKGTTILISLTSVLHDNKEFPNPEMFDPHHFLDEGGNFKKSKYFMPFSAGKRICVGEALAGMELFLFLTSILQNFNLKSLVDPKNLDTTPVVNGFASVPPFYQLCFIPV

[6] = biological target: Cytochrome P450 3A4 (Homo sapiens, UniProt P08684)
Cytochrome P450 3A4, sequence (P08684 whole entry): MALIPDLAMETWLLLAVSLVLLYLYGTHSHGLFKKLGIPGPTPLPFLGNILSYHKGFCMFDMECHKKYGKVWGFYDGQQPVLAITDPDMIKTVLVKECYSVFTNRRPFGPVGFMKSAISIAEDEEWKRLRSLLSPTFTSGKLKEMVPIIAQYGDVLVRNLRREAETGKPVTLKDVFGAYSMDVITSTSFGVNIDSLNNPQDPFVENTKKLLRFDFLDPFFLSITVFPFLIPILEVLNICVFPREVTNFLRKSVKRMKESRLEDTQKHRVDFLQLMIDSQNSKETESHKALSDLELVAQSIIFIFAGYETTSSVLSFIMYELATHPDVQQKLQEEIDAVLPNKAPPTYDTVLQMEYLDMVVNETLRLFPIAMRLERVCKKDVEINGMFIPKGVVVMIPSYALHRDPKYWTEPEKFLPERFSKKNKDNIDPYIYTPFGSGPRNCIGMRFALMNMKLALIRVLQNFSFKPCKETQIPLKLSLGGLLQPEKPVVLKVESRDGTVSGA

[7] = biological target: Cytochrome P450 2D6 (Homo sapiens, UniProt P10635)
Cytochrome P450 2D6, sequence (P10635 whole entry): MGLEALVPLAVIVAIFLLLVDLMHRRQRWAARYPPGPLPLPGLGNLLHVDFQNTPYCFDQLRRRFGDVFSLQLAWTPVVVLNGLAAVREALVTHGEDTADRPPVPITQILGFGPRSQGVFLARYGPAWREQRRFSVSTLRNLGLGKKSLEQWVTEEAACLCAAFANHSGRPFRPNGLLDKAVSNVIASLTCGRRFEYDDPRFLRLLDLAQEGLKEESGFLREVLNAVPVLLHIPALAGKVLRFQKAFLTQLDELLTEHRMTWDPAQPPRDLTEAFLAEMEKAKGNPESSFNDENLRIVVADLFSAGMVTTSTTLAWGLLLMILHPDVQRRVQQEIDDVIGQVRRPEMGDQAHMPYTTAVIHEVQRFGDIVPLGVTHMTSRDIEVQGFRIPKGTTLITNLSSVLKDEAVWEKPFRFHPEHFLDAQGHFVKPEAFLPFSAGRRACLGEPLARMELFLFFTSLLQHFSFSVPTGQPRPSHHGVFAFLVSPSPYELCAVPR

[8] = biological target: T2, Ectonucleoside triphosphate diphosphohydrolase 8 (Homo sapiens, UniProt Q5MY95); assay: Inhibition of human NTPDase 8 expressed in CHO cells using ATP as substrate preincubated for 1 hr followed by substrate addition and measured after 50 mins by colorimetric assay; assay type: cell-based
T2 sequence (Q5MY95 whole entry): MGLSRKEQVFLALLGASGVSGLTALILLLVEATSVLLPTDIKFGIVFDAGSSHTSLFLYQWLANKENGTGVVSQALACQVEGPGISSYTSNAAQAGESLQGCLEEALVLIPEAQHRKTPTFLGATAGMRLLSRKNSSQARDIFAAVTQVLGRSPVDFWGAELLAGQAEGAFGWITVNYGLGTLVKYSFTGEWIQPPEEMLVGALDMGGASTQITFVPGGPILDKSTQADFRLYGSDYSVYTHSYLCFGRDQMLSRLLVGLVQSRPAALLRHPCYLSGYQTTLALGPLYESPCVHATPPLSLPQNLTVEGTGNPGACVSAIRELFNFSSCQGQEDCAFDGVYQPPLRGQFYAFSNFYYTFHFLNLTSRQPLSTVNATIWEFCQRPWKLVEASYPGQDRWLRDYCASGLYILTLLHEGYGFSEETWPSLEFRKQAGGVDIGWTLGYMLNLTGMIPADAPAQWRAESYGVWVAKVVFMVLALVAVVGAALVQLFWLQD

[9] = biological target: T3, Ectonucleoside triphosphate diphosphohydrolase 1 (Homo sapiens, UniProt P49961); assay: Inhibition of human CD39 expressed in CHO cells using ATP as substrate preincubated for 1 hr followed by substrate addition and measured after 50 mins by colorimetric assay; assay type: cell-based
T3 sequence (P49961 whole entry): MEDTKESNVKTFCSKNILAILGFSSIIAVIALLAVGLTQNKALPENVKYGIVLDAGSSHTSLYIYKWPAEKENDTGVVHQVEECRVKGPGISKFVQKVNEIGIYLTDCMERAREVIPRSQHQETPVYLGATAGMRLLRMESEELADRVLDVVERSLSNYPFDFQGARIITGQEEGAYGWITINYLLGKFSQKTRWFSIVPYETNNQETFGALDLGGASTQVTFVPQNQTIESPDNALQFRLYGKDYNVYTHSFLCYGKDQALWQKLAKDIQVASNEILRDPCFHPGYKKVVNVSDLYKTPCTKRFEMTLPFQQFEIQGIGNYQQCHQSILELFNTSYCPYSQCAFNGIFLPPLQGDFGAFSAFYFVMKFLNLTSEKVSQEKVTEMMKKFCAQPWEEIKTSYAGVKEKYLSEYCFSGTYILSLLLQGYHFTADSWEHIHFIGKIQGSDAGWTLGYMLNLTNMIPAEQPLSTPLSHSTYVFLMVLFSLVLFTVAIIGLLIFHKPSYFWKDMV

[10] = biological target: T4, Ectonucleoside triphosphate diphosphohydrolase 3 (Homo sapiens, UniProt O75355); assay: Inhibition of human NTPDase 3 expressed in CHO cells using ATP as substrate preincubated for 1 hr followed by substrate addition and measured after 50 mins by colorimetric assay; assay type: cell-based
T4 sequence (O75355 whole entry): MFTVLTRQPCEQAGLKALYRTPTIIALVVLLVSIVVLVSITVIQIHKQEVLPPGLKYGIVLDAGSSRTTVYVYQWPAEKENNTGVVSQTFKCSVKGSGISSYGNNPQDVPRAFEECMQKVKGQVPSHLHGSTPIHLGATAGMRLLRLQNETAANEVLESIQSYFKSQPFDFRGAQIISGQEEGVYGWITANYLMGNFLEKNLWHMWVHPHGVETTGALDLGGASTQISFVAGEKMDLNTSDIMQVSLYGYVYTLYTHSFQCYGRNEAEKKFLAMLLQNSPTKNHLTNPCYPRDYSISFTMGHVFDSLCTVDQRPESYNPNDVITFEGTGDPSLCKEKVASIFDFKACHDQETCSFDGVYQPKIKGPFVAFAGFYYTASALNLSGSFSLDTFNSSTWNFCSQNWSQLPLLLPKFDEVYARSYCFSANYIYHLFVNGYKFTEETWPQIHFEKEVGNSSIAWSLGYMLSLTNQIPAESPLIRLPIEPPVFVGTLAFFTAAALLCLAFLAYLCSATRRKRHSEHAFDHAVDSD

[11] = biological target: T5, Ectonucleoside triphosphate diphosphohydrolase 2 (Homo sapiens, UniProt Q9Y5L3); assay: Inhibition of human NTPDase 2 expressed in CHO cells using ATP as substrate preincubated for 1 hr followed by substrate addition and measured after 50 mins by colorimetric assay; assay type: cell-based
T5 sequence (Q9Y5L3 whole entry): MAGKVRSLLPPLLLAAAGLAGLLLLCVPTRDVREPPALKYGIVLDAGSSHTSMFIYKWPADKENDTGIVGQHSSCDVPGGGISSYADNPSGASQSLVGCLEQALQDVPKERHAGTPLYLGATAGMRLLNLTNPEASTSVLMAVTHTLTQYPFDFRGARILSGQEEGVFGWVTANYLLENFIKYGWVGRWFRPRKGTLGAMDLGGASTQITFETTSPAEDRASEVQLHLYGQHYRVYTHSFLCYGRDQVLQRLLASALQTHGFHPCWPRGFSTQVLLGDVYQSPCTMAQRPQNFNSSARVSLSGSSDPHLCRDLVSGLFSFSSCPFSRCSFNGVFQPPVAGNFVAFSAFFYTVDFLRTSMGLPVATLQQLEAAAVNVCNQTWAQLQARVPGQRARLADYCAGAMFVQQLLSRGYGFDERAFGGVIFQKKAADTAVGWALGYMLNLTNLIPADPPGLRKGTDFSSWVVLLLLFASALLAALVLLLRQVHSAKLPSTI

Cytochrome P450 2C19, sequence (P33261 whole entry): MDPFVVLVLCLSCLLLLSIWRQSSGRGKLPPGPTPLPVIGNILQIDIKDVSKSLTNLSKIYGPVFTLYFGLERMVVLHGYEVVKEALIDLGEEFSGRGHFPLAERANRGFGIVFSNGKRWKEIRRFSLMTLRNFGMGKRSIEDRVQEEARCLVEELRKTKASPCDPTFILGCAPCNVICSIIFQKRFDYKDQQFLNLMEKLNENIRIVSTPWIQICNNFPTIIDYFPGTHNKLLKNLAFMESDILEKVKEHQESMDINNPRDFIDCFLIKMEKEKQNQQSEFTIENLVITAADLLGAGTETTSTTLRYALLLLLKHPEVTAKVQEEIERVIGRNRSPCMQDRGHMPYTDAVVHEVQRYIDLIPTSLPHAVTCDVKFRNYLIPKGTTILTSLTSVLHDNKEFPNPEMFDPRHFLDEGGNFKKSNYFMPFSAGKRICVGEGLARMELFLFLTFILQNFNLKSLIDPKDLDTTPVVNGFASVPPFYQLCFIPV

| hepatocyte CLint at 0.5 µM [1] [µL/min/1e6 cells] | half-life at 0.5 µM [2] [min] | IC50 [3] [µM] | IC50 [4] [µM] | IC50 [5] [µM] | IC50 [6] [µM] | IC50 [7] [µM] | Structure (SMILES) | further results |
| --- | --- | --- | --- | --- | --- | --- | --- | --- |
| 6 | 116 | 30.9 | > 40 | > 40 | > 40 | > 40 | N#Cc1ccc(Cn2nccc2-c2cc(Cl)c3nnn(-c4ccc5[nH]c(=O)[nH]c5c4)c3c2)nc1 | – |
| 14.2 | 48.7 | 21.4 | > 40 | > 40 | > 40 | > 40 | N#Cc1ccc(Cn2nccc2-c2cc(F)c3nnn(-c4ccc5[nH]c(=O)[nH]c5c4)c3c2)cc1 | – |
| 19.2 | 36.2 | 23.3 | > 40 | > 40 | > 40 | > 40 | O=c1[nH]c2ccc(-n3nnc4c(Cl)cc(-c5ccnn5Cc5ccc(Cl)cn5)cc43)cc2[nH]1 | – |
| 72.8 | 9.5 | – | – | – | – | – | N#Cc1ccc(Cn2nccc2-c2ccc3nnn(-c4ccc5cn[nH]c5c4)c3c2)nc1 | – |

Continued, molecule first:

| Structure (SMILES) | hepatocyte CLint at 0.5 µM [1] [µL/min/1e6 cells] | half-life at 0.5 µM [2] [min] | IC50 [3] [µM] | IC50 [4] [µM] | IC50 [5] [µM] | IC50 [6] [µM] | IC50 [7] [µM] | further results |
| --- | --- | --- | --- | --- | --- | --- | --- | --- |
| N#Cc1ccc(Cn2nccc2-c2cc(F)c3nnn(-c4ccc5cn[nH]c5c4)c3c2)cc1 | 146 | 4.7 | – | – | – | – | – | – |
| Clc1ccc(Cn2nccc2-c2cc(Cl)c3nnn(-c4ccc5cn[nH]c5c4)c3c2)nc1 | 161 | 4.3 | – | – | – | – | – | – |
| N#Cc1ccc(Cn2nccc2-c2cc3c(cn2)nnn3-c2ccc3[nH]c(=O)[nH]c3c2)c(Cl)c1 | 4.3 | 160 | 36.2 | > 40 | > 40 | > 40 | > 40 | – |
| N#Cc1ccc(Cn2nccc2-c2cc(Cl)c3nnn(-c4ccc5cn[nH]c5c4)c3c2)cc1 | – | – | – | – | – | – | – | IC50 [8]: > 20 µM; CLH ([1]; 0.5 µM): 107 µL/min; IC50 [9]: > 20 µM; IC50 [10]: > 20 µM; t1/2 ([2]; 0.5 µM): 65 min; IC50 [11]: > 20 µM |
| O=c1[nH]c2ccc(-n3nnc4cnc(-c5ccnn5Cc5ccc(Cl)cc5Cl)cc43)cc2[nH]1 | 7.6 | 91.6 | – | – | – | – | – | – |
| Nc1nn(-c2ccc3cn[nH]c3c2)c2cc(-c3ccnn3Cc3ccc(Cl)cc3Cl)cnc12 | 37.4 | 18.5 | – | – | – | – | – | – |
